# Assay results from ChEMBL document CHEMBL1201862, “PubChem BioAssay data set” (2004).
# The source made the active and inactive calls.
# Tests used:
# Type in all cases: functional
# Protein RecA = target: T1, Protein RecA (Mycobacterium tuberculosis, UniProt P9WHJ3); assay: Fluorescence Cell-Free Homogeneous Dose Retest to Identify Inhibitors of RecA-Intein Splicing Activity. [Related pubchem assays (depositor defined):AID2097, AID2223, AID489010, AID492950]
# T1 sequence (P9WHJ3 whole entry): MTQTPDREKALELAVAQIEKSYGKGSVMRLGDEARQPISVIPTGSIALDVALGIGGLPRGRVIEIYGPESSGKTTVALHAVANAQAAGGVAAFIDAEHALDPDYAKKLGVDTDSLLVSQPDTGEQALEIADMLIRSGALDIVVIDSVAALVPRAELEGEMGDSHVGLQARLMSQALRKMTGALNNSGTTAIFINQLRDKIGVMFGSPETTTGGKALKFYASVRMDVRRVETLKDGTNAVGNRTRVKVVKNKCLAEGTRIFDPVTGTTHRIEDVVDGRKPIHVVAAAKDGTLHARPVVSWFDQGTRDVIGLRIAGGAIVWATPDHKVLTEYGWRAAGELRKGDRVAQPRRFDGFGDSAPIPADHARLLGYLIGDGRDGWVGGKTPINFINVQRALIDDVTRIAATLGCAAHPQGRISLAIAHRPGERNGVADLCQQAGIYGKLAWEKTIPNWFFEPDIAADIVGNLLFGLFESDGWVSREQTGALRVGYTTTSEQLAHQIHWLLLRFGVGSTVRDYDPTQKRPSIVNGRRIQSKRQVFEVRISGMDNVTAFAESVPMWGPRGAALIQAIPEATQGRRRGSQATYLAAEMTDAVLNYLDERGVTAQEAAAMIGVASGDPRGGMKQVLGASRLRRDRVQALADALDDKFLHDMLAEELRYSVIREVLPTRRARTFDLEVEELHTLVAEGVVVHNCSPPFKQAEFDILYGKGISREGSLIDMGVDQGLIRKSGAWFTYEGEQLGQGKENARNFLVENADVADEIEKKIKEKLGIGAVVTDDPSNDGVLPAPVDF
# [1] = target: 3-phosphoinositide-dependent protein kinase 1 (Homo sapiens, UniProt O15530);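 note: value comes from the Navigating the Kinome panel, PDPK1 member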
# [2] = target: T2, Serine/threonine-protein kinase D3 (Homo sapiens, UniProt O94806);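 note: determined within a kinase panel screen, with PRKCN as the panel member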
# T2 sequence (O94806 whole entry): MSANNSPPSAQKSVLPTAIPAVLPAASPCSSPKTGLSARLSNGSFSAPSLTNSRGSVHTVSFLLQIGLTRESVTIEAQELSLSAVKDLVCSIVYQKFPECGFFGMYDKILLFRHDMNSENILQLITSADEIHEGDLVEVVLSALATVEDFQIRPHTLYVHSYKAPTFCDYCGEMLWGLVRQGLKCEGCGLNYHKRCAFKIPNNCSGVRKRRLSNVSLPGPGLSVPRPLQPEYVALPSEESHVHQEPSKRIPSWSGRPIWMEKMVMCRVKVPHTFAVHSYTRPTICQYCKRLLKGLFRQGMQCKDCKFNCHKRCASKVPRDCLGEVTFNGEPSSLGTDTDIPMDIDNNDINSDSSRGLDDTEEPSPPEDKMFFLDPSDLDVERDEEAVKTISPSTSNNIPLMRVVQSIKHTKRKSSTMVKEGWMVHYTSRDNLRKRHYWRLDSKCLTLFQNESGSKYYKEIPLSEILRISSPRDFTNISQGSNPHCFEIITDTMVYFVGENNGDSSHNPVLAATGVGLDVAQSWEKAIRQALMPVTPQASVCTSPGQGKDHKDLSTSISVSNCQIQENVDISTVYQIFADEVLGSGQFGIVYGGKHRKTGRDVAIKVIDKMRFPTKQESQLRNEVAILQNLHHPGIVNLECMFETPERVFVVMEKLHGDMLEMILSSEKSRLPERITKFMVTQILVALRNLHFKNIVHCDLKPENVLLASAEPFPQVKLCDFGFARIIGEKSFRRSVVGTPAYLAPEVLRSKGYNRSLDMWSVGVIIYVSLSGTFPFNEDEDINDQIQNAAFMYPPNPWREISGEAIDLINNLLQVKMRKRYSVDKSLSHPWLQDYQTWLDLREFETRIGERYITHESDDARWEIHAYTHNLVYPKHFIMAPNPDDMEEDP
# [3] = target: Receptor tyrosine-protein kinase erbB-2 (Homo sapiens, UniProt P04626); assay: Navigating the Kinome. Panel member name: ERBB2
# [4] = target: Fibroblast growth factor receptor 1 (Homo sapiens, UniProt P11362)
# [5] = target: Dual specificity tyrosine-phosphorylation-regulated kinase 4 (Homo sapiens, UniProt Q9NR20)
# [6] = target: Testis-specific serine/threonine-protein kinase 1 (Homo sapiens, UniProt Q9BXA7)
# [7] = target: Tyrosine-protein kinase Blk (Homo sapiens, UniProt P51451);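 note: obtained as one member of a kinome-wide kinase assay panel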
# [8] = target: Dual specificity tyrosine-phosphorylation-regulated kinase 1A (Homo sapiens, UniProt Q13627);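 note: measured against DYRK1A as one member of a broad kinome profiling panel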
# [9] = target: Proto-oncogene tyrosine-protein kinase ROS (Homo sapiens, UniProt P08922);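 note: ROS1 tested as one member of a kinome-wide kinase panel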
# [10] = target: Proto-oncogene tyrosine-protein kinase Src (Homo sapiens, UniProt P12931);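 note: SRC entry within a kinome-wide kinase profiling panel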
# [11] = target: Serine/threonine-protein kinase pim-3 (Homo sapiens, UniProt Q86V86);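 note: value obtained as one member of a broad kinase panel profiling effort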
# [12] = target: MAP kinase-activated protein kinase 2 (Homo sapiens, UniProt P49137);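 note: measured as one member of a kinome-wide kinase panel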
# [13] = target: cAMP-dependent protein kinase catalytic subunit alpha (Homo sapiens, UniProt P17612)
# [14] = target: Serine/threonine-protein kinase PAK 1 (Homo sapiens, UniProt Q13153)
# [15] = target: Serine/threonine-protein kinase PLK3 (Homo sapiens, UniProt Q9H4B4)
# [16] = target: Protein kinase C zeta type (Homo sapiens, UniProt Q05513);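 note: measured as one member of a broad kinase profiling panel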
# [17] = target: Mitogen-activated protein kinase 12 (Homo sapiens, UniProt P53778);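 note: measured as one member of a kinome-wide kinase profiling panel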
# [18] = target: Serine/threonine-protein kinase pim-1 (Homo sapiens, UniProt P11309)
# [19] = target: cGMP-dependent protein kinase 1 (Homo sapiens, UniProt Q13976);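 note: value from a kinome panel screen with PRKG1 as the panel member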
# [20] = target: MAP kinase-activated protein kinase 5 (Homo sapiens, UniProt Q8IW41);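 note: measured as one member of a kinome panel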
# [21] = target: Platelet-derived growth factor receptor alpha (Homo sapiens, UniProt P16234); assay: Navigating the Kinome. Panel member name: PDGFRA
# Fibroblast growth factor receptor 1, sequence (P11362 whole entry): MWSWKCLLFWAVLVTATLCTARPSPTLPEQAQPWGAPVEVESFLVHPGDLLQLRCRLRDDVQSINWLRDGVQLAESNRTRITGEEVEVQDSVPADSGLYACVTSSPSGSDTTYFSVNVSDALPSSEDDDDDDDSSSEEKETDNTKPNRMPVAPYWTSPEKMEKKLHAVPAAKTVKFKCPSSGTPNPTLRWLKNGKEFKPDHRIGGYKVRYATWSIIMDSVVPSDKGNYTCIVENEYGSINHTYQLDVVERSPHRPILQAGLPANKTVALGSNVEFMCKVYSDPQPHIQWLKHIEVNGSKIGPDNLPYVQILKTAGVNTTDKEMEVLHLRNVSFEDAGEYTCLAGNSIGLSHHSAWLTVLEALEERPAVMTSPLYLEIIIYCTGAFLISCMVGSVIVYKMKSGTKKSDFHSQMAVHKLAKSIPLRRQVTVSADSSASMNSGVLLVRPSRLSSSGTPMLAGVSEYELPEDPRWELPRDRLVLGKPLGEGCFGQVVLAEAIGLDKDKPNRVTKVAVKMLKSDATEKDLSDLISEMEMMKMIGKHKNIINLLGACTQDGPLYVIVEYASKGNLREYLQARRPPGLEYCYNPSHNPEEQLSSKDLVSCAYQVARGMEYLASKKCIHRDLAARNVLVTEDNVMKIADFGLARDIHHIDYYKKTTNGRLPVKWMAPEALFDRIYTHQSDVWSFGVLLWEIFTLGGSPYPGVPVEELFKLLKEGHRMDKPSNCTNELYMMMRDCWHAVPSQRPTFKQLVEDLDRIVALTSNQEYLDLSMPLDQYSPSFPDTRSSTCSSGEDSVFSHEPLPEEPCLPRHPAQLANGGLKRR
# Serine/threonine-protein kinase PLK3, sequence (Q9H4B4 whole entry): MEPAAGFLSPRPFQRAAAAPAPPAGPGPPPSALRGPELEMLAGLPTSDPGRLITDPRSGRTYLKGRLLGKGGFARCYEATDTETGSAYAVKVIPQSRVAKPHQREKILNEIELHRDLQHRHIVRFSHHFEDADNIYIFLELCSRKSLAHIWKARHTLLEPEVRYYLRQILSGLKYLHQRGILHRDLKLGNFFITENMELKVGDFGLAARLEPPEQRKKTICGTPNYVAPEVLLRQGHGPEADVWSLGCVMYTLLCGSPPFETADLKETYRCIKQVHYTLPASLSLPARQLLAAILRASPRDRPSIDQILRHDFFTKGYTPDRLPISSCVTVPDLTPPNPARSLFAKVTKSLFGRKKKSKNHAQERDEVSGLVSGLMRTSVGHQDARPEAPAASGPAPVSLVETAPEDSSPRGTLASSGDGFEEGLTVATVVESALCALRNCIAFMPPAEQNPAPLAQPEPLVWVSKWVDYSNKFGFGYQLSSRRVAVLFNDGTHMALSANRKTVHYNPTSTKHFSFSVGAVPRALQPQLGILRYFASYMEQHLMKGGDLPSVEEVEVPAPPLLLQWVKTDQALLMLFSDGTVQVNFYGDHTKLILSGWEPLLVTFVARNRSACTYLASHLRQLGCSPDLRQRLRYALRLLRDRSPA
# Serine/threonine-protein kinase pim-1, sequence (P11309 whole entry): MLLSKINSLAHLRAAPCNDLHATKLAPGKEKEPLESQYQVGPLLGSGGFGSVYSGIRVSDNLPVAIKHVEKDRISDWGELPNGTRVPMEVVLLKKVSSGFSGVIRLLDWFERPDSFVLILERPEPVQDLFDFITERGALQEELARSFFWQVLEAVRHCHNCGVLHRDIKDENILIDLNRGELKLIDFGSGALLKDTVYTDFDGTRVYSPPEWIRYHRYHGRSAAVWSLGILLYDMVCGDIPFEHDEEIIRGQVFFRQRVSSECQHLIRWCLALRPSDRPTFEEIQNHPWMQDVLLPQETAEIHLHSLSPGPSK
# cGMP-dependent protein kinase 1, sequence (Q13976 whole entry): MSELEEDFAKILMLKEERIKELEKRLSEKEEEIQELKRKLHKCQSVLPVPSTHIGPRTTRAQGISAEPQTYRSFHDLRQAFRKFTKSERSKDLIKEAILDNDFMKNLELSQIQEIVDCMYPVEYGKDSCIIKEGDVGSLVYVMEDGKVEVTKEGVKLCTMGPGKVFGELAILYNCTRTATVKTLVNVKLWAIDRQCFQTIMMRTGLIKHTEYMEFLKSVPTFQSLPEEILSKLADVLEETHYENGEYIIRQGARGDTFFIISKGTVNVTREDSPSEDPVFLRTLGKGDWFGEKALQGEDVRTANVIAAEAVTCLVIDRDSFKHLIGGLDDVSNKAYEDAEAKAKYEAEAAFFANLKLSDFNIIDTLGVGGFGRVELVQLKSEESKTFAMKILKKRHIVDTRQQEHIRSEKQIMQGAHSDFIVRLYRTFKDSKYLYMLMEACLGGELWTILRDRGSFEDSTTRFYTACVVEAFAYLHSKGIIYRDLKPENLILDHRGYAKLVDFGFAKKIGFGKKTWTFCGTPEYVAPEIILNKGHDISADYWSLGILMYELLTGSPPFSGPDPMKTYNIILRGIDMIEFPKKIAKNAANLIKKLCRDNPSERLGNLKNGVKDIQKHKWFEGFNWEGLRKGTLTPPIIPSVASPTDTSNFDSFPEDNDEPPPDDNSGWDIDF
# 3-phosphoinositide-dependent protein kinase 1, sequence (O15530 whole entry): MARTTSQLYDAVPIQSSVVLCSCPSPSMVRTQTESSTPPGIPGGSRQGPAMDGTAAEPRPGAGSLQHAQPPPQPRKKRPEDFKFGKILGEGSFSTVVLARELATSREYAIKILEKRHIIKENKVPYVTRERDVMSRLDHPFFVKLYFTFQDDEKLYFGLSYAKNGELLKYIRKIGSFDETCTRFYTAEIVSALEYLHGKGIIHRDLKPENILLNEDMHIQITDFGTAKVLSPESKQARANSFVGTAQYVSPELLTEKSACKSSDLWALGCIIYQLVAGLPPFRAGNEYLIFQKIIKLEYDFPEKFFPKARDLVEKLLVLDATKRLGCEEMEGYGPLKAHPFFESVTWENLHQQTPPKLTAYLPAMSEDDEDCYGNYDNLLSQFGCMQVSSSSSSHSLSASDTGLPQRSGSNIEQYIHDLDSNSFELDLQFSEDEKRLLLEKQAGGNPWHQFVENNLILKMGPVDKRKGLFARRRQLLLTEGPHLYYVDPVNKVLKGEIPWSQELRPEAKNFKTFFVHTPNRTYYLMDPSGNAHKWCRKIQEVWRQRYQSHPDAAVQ
# Receptor tyrosine-protein kinase erbB-2, sequence (P04626 whole entry): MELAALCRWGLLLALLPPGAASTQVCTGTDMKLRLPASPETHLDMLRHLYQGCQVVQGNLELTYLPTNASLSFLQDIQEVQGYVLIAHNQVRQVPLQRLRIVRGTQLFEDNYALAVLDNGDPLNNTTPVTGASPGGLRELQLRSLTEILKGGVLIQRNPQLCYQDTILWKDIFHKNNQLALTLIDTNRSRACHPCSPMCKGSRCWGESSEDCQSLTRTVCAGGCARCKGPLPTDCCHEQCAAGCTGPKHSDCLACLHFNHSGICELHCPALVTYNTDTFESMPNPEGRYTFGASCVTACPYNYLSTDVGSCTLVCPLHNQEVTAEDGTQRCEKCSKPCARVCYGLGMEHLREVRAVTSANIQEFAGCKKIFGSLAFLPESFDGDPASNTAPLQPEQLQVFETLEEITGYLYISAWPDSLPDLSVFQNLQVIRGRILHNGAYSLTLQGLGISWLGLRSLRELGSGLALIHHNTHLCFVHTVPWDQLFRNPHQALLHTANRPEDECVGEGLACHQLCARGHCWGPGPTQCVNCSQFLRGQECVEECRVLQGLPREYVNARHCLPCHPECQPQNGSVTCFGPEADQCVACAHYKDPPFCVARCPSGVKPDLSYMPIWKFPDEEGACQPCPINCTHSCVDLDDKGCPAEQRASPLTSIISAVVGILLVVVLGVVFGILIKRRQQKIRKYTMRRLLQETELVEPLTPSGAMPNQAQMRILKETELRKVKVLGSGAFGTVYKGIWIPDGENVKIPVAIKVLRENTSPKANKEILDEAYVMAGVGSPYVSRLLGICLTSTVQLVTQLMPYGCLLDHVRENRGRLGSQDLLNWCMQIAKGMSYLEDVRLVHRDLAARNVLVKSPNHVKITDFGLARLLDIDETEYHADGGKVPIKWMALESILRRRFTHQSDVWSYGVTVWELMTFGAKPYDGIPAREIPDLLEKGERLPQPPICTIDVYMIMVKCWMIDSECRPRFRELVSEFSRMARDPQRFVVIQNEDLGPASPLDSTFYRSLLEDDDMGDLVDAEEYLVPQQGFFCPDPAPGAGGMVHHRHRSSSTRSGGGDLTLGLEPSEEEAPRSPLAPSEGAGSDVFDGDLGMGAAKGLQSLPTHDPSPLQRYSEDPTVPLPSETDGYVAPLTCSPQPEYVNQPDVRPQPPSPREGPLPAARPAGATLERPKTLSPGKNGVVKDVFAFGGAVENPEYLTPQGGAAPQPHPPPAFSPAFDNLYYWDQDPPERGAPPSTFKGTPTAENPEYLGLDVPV
# Mitogen-activated protein kinase 12, sequence (P53778 whole entry): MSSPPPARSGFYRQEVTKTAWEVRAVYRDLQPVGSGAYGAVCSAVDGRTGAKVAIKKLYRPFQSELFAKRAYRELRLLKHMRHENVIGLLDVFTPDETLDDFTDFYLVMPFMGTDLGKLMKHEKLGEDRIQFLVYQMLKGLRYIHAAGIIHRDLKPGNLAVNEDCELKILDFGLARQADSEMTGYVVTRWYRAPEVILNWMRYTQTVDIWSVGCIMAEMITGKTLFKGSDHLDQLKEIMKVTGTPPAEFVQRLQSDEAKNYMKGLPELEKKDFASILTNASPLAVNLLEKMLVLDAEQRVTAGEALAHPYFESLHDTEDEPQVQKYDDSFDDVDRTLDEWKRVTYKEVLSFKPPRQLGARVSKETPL
compound,measurement,setting,value
COC(=O)CCS(=O)(=O)c1nc(-c2ccccc2)cc(C(F)(F)F)n1,EC50,Protein RecA,4.56 µM (active)
O=C(O)c1ccc(NC2=C(Cl)C(=O)c3ccccc3C2=O)cc1,EC50,Protein RecA,1.22 µM (active)
O=C(O)c1ccc2c3c(ncnc13)-c1ccccc1C2=O,EC50,Protein RecA,1.77 µM (active)
Cc1ccc2nccc(NC(=O)Nc3cccc(C(F)(F)F)n3)c2c1,Ki,[1],> 3.98 µM (inactive)
same,Ki,[2],1.26 µM (active)
same,Ki,[3],> 1.58 µM (inactive)
same,Ki,[4],> 3.98 µM (inactive)
same,Ki,[5],> 7.94 µM (inactive)
same,Ki,[6],> 1.58 µM (inactive)
same,Ki,[7],> 1.58 µM (inactive)
same,Ki,[8],> 1 µM (inactive)
same,Ki,[9],> 2 µM (inactive)
same,Ki,[10],> 2 µM (inactive)
same,Ki,[11],0.316 µM (active)
same,Ki,[12],> 7.94 µM (inactive)
same,Ki,[13],> 7.94 µM (inactive)
same,Ki,[14],> 10 µM (inactive)
same,Ki,[15],> 7.94 µM (inactive)
same,Ki,[16],> 7.94 µM (inactive)
same,Ki,[17],> 6.31 µM (inactive)
same,Ki,[18],> 3.16 µM (inactive)
same,Ki,[19],> 2 µM (inactive)
same,Ki,[20],> 1.58 µM (inactive)
Cc1nn(C)c2sc3c(=O)[nH]cnc3c12,Ki,[2],39.8 µM (active)
same,Ki,[4],> 50.1 µM (inactive)
same,Ki,[8],25.1 µM (active)
same,Ki,[21],100 µM (active)
same,Ki,[11],2.51 µM (active)
same,Ki,[13],50.1 µM (active)
same,Ki,[15],> 79.4 µM (inactive)
same,Ki,[18],31.6 µM (active)
Cc1c(/N=C2\C=CC(=O)c3ccccc32)c(=O)n(-c2ccccc2)n1C,EC50,Protein RecA,0.768 µM (active)
COc1cc2c(cc1F)C(c1ccccc1Cl)=Nc1c(n[nH]c1C)N2 [RG-1530],Ki,[1],0.0501 µM (active)
same,Ki,[2],> 3.98 µM (inactive)
same,Ki,[3],> 1.58 µM (inactive)
same,Ki,[4],0.0501 µM (active)
same,Ki,[5],> 7.94 µM (inactive)
same,Ki,[6],> 1.58 µM (inactive)
same,Ki,[7],0.0631 µM (active)
same,Ki,[8],> 0.794 µM (inactive)
same,Ki,[21],0.316 µM (active)
same,Ki,[9],0.02 µM (active)
same,Ki,[10],0.126 µM (active)
same,Ki,[11],> 7.94 µM (inactive)
same,Ki,[12],> 7.94 µM (inactive)
same,Ki,[13],> 3.16 µM (inactive)
same,Ki,[14],0.316 µM (active)
same,Ki,[15],6.31 µM (active)
same,Ki,[16],> 7.94 µM (inactive)
same,Ki,[17],> 6.31 µM (inactive)
same,Ki,[18],> 5.01 µM (inactive)
same,Ki,[19],> 2 µM (inactive)
same,Ki,[20],> 1.58 µM (inactive)
